These are literature values, as cited in patent US20220220135A1 (BAR-ILAN UNIVERSITY, priority 2019, published 2022).

Structures are written as SMILES.

Holding throughout (conditions): literature value; cited from earlier work
One data set concerns the target T1, Human CD39 (NTPDase1) (Homo sapiens, UniProt P49961).
T1 sequence (P49961 1-510): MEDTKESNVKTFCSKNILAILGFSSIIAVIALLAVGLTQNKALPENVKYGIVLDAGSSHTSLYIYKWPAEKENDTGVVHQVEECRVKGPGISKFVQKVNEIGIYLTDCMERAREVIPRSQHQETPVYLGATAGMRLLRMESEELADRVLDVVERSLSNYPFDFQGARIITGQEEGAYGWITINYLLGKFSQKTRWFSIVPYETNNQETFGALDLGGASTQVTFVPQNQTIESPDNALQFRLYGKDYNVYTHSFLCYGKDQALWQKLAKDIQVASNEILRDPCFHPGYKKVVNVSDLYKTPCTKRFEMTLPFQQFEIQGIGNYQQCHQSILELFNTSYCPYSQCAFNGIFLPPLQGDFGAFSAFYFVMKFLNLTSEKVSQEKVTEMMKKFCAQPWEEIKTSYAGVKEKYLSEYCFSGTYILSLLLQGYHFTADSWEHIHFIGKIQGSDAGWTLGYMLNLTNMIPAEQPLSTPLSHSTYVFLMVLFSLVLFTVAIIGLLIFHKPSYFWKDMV

In another data set the target is T2, NPP1 (Homo sapiens, UniProt P22413).
T2 sequence (P22413 1-925): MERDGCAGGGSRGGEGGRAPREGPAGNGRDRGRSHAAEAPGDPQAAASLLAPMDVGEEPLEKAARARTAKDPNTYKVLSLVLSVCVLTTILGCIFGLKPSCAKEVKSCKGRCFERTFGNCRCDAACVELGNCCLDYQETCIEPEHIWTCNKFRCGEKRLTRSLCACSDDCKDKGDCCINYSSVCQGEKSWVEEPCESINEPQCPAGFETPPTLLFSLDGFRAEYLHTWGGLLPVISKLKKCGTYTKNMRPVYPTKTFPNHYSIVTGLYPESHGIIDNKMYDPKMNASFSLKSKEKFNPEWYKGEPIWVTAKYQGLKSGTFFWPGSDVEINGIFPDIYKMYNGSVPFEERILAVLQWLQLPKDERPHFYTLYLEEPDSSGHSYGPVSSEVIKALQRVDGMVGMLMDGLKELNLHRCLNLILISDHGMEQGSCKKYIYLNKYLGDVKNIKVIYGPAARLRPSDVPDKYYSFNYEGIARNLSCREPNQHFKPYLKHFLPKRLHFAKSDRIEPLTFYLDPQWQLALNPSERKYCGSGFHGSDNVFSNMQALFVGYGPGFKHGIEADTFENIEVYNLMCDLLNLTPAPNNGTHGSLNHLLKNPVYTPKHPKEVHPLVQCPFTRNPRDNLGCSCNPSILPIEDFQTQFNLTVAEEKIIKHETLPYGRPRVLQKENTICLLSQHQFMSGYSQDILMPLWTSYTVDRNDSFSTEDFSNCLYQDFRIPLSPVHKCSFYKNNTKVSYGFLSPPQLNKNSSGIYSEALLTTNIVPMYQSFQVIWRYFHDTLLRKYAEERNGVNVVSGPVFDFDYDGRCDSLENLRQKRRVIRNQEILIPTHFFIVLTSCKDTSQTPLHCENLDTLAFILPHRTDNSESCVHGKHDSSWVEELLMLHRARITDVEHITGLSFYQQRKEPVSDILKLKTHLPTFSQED

In another data set the target is T3, human NPP3 (Homo sapiens, UniProt O14638).
T3 sequence (O14638 1-875): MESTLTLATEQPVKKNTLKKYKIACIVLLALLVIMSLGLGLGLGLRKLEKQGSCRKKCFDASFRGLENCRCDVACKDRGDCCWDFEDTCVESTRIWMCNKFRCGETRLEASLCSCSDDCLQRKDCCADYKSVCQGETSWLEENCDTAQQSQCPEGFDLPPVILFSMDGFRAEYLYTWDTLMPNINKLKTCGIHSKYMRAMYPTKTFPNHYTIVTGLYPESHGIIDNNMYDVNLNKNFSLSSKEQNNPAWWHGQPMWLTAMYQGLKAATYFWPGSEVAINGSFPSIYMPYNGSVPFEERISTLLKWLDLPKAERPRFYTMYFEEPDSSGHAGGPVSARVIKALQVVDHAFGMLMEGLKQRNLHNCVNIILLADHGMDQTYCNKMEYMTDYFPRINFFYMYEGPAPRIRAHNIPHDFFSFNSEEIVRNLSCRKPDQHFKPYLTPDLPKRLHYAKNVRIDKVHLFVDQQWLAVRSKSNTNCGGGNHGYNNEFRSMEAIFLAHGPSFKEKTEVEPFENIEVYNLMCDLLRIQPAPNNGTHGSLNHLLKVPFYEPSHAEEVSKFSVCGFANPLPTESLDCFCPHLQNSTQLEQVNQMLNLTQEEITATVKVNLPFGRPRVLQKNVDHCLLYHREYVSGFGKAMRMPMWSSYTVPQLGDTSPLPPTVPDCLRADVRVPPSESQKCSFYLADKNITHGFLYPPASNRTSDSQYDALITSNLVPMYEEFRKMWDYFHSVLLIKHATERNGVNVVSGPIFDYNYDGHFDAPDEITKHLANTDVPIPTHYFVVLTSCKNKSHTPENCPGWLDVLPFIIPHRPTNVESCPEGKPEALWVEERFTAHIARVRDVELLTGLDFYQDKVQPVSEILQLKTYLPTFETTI

The target of a further data set is T4, Human CD73 (Homo sapiens, UniProt P21589).
T4 sequence (P21589 27-549): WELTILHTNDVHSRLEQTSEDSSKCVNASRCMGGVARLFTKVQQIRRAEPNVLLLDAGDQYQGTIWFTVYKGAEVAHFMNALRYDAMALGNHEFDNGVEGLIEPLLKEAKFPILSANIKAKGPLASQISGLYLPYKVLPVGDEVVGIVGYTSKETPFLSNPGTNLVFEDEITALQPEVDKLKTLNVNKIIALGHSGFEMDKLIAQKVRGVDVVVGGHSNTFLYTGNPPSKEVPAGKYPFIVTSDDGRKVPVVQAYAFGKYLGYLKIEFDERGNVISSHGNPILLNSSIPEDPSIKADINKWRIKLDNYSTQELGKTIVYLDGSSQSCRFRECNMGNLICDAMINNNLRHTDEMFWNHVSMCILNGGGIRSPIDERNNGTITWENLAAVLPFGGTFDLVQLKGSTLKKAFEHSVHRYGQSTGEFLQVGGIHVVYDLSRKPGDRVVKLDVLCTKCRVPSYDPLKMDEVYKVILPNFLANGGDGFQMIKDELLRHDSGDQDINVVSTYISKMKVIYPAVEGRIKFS

As usually defined, the Ki is a dissociation constant, usually derived from enzyme kinetics or from competition with a known ligand. Regarding `Nc1c(S(=O)(=O)O)cc(Nc2ccc(Nc3nc(Cl)nc(Nc4cccc(S(=O)(=O)O)c4)n3)c(S(=O)(=O)O)c2)c2c1C(=O)c1ccccc1C2=O` [Reactive Blue 2], the inhibitory constant (Ki) at Human CD39 (NTPDase1) was 20 µM; at NPP1, 0.52 µM; at human NPP3 it was 0.71 µM; at Human CD73, 3.07 µM.
